In ChEMBL document CHEMBL4257466, “The use of matched molecular series networks for cross target structure activity relationship translation and potency prediction” (Medchemcomm, 2017):

Target: RNA-directed RNA polymerase (Hepacivirus hominis, UniProt O39930)
Assay: Inhibition of HCV RNA polymerase

RNA-directed RNA polymerase, sequence (O39930 whole entry): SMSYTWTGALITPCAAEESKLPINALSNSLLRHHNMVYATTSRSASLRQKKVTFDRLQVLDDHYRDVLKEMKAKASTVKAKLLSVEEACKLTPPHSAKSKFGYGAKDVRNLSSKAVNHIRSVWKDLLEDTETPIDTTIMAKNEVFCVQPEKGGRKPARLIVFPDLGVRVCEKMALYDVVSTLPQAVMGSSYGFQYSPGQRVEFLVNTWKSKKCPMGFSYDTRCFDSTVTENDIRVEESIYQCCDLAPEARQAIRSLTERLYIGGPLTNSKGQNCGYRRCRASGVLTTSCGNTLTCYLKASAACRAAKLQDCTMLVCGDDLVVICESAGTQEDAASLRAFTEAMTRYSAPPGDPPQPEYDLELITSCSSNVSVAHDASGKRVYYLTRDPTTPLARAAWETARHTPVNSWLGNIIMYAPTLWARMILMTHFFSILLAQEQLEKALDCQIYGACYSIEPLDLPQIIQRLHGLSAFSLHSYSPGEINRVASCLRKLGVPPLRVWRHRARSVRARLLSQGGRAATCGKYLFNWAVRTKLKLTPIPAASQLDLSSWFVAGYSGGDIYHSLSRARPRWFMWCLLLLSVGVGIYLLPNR

Compound | IC50
CNC(=O)c1c(-c2ccc(F)cc2)oc2nc(CNC(=O)COC)c(C3CC3)cc12 | 3.16 µM
CNC(=O)c1c(-c2ccc(F)cc2)oc2nc(CNC(=O)C3CCOC3)c(C3CC3)cc12 (stereo not given) | 2.51 µM
CNC(=O)c1c(-c2ccc(F)cc2)oc2nc(CN)c(C3CC3)cc12 | 6.31 µM

Next, values leading:

IC50 | Compound
0.501 µM | CNC(=O)c1c(-c2ccc(F)cc2)oc2nc(CNS(C)(=O)=O)c(C3CC3)cc12
0.631 µM | CNC(=O)c1c(-c2ccc(F)cc2)oc2nc(CNC(C)=O)c(C3CC3)cc12
